Laboratory results: patent publication US10806739B2, “Use of n-desmethylclobazam in the treatment of chronic pain disorders and related methods” (LES HOPITAUX UNIV[…] GENEVE, priority 2015, dated 2020)

Experiments:
[1] = system: α1β2γ2, α2β3γ2, α3β3γ2 and α5β2γ2 GABAARs; experiment: Whole-cell patch-clamp, results stated across several recombinant GABAAR subtypes; format: cell-based, rat; settings: for Preference α2- versus α1GABAARs at low concentrations: low concentrations (<EC50); for Efficacy of potentiation of α2- versus α1GABAARs at saturating concentrations: saturating concentrations: 1 μM DZP, 20 μM CBZ, 20 μM NDMC; for Relative potentiation of subtypes at sub-saturating concentrations: sub-saturating concentrations (<EC50)
From the text: (§1) To ensure expression of the γ2 subunit (required for modulation of GABAAR currents by BDZs) in all recorded cells, cells were transfected with a plasmid expressing the γ2 subunit plus eGFP from an IRES (internal ribosome entry site) and only eGFP-positive cells were selected for recordings. The transfection mixture contained (in μg): […], 3 γ2/eGFP (used as a marker of successful transfection). Whole-cell patch-clamp recordings were made 18-36 hrs after transfection at room temperature (20-24° C.) and at a holding membrane potential of −60 mV. Recording electrodes were filled with solution containing (in mM): 120 CsCl, 10 EGTA (aminopolycarboxylic acid), 10 HEPES (4-(2-hydroxyethyl)-1-piperazineethanesulfonic acid, pH 7.40), 4 MgCl2, 0.5 GTP (guanosine-5′-triphosphate) and 2 ATP (adenosine triphosphate). The external solution contained (in mM): 150 NaCl, 10 KCl, 2.0 CaCl2, 1.0 MgCl2, 10 HEPES (pH 7.40), and 10 glucose. GABA was applied to the recorded cell using a manually controlled pulse (6-10 s) of a low sub-saturating GABA concentration (EC10). […] EC50 values and Hill coefficients (nH) were obtained from fits of normalized concentration-response curves to the equation: IGABA=Imax[GABA]nH/([GABA]nH+[EC50]nH). Imax was determined as the average maximal current elicited by saturating concentration of GABA (30 μM−3 mM, depending on the subunit composition).

[2] = system: T1, α1β2γ2, α2β3γ2, α3β3γ2 and α5β2γ2 GABAARs; experiment: as above; format: cell-based, rat; settings: up to 3 μM for DZP, up to 20 μM for CBZ and NDMC
T1 construct: EC50 of potentiation of GABAAR currents; other: range over all four receptor subtypes; GABA at EC10; fused on or other part: eGFP co-expressed from an IRES on the γ2 plasmid (not fused)
From the text: as §1

[3] = system: T2, α1β2γ2, α2β3γ2, α3β3γ2 and α5β2γ2 GABAARs; experiment: as above; format: cell-based, rat; settings: α1-, α2- and α5-GABAARs together; GABA at EC10
T2 construct: rows headed: Potentiation of the other three α1-, α2-, and α5-GABAARs subtypes; other: α1-, α2- and α5-GABAARs together; GABA at EC1; fused on or other part: eGFP co-expressed from an IRES on the γ2 plasmid (not fused)
From the text: as §1

[4] = after a single oral dose of 20 or 30 mg of CBZ; cited from earlier work
[5] = system: α2 versus α1 receptor complexes; settings: cited from earlier work
α3β3γ2 GABAAR = target: T3, α3β3γ2 GABAAR (Rattus norvegicus, UniProt P18508+P20236); experiment: Whole-cell patch-clamp, potentiation of GABA-evoked currents in transfected HEK293 cells; format: cell-based; settings: α3GABAARs; GABA at EC10
T3 construct: expressed in transfected cells; host or cells: HEK293 cells (ATCC)
From the text: as §1

healthy volunteers = settings: standard therapeutic doses; cited from earlier work
[6] = system: α2GABAAR-mediated antihyperalgesia; settings: GABAAR α1 (H→R) point-mutated mice
Experimental: To avoid confounding effects of anxiolysis in sedation experiments, and of sedation on antihyperalgesia experiments triple point-mutated mice were used. Sedation was assessed in triple (H→R) point-mutated mice, in which all GABAARs except α1 had been rendered BDZ-insensitive. Conversely, antihyperalgesia was studied in GABAAR α1 (H→R) point-mutated mice to rule out confounding sedation.

[7] = system: α1GABAAR-mediated sedation; experiment: Dose dependence of sedation in triple (H→R) point-mutated mice; settings: all GABAARs except α1 BDZ-insensitive
Experimental: Mice (C57BL/6J or 129X1/SvJ) were tested during the light phase of the day-night cycle. […] Motor activity expressed as the total number of photocell interruptions was recorded for 6 h.

α2GABAAR = α2GABAAR (Mus musculus, UniProt P22723+P26048); settings: full agonist; cited from earlier work
mice, motor activity = experiment: Motor activity (photocell interruptions); format: in vivo
[8] = NDMC pharmacokinetics after oral administration, dried blood spot sampling, LCMS-MS; format: in vivo, C57BL/6 mice
Experimental: Pharmacokinetic parameters of NDMC following oral administration in C57BL/6 mice were determined and allowed to test whether antihyperalgesia after NDMC administration was mediated by NDMC itself and not by a down-stream metabolite.
Pharmacokinetic properties of NDMC were evaluated using the dried blood spot sampling method. This technique allows collecting multiple bleeds from the same animal over a large time window (Deglon et al., 2011, Pharm. Biomed. Analysis, 54(2): 359-367). Four μl of whole blood were collected and spotted onto a filter paper card from Whatman (Dassel, Germany) at different time points between 0 and 48 h after NDMC administration. NDMC concentration measurements were performed using a fully validated LCMS-MS (liquid chromatography—mass spectrometry or HPLC) method. Pharmacokinetic parameters were estimated by a noncompartmental method using WinNonlin® version 5.2 (Pharsight, Mountainview, Calif., USA).
Blood NDMC concentrations were measured with HPLC following single oral doses of 3, 10 and 30 mg kg^−1 in three mice per group (FIG. 5). Maximal blood levels of NDMC were reached within 2-3 hrs.

[9] = system: CCI mice, paw withdrawal latency; experiment: Heat hyperalgesia (Plantar Test) in chronic constriction injury (CCI) neuropathic pain model; format: in vivo
Experimental: (§2) Experiments were performed in wild-type mice (genetic background C57BL/6J or 129X1/SvJ), and in homozygous triple and quadruple (H→R) GABAAR point-mutated mice of the 129X1/SvJ background (Ralvenius et al., 2015, supra). Quadruple point-mutated mice were generated by cross breeding of single point-mutated mice (Crestani et al., 2002, PNAS, 99(13): 8980-8985; Low et al., 2000, Science 290(5489): 131-134; Rudolph et al., 1999, Nature, 401(6755): 796-800). Quadruple point mutated mice carry the H→R mutation in the α1, α2, α3, and α5 subunits that is in all α subunits that can form a high affinity BDZ binding site.
(§3) A chronic constriction injury (CCI) model was used. Unilateral constriction injury of the left sciatic nerve just proximal to the trifurcation was performed. Anesthesia was induced and maintained by 2% isoflurane, combined with oxygen (30%). The sciatic nerve was exposed at the mid-thigh level proximal to the sciatic trifurcation by blunt dissection through the biceps femoris muscle. […] Heat hyperalgesia and mechanical sensitization were assessed 7 days after surgery.
Paw withdrawal latencies upon exposure to a defined radiant heat stimulus were measured using a commercially available apparatus (Plantar Test, Ugo Basile, Comerio, Italy). […]

α5β2γ2 GABAAR = target: T4, α5β2γ2 GABAAR (Rattus norvegicus, UniProt P18508+P19969); experiment: Whole-cell patch-clamp, potentiation of GABA-evoked currents in transfected HEK293 cells; format: cell-based; settings: α5GABAARs; GABA at EC10
T4 construct: expressed in transfected cells; host or cells: HEK293 cells (ATCC)
From the text: as §1

α2β3γ2 GABAAR = target: T5, α2β3γ2 GABAAR (Rattus norvegicus, UniProt P18508+P23576); experiment: as above; format: cell-based
T5 construct: expressed in transfected cells; host or cells: HEK293 cells (ATCC)
From the text: as §1

α1β2γ2 GABAAR = target: T6, α1β2γ2 GABAAR (Rattus norvegicus, UniProt P18508+P62813); experiment: as above; format: cell-based; settings: α1GABAARs; GABA at EC10
T6 construct: expressed in transfected cells; host or cells: HEK293 cells (ATCC)
From the text: as §1

[10] = system: CCI mice, paw withdrawal threshold; experiment: Mechanical hyperalgesia (dynamic von Frey filaments) in CCI neuropathic pain model; format: in vivo
Experimental: as §2
as §3, with “muscle. […] of nerve were freed of adhering tissue and three chromic gut ligatures (4/0) (Ethicon) were loosely put around the nerve with about 1 mm spacing.” for “muscle.”
Mechanical sensitivity was assessed with dynamic von Frey filaments (IITC, Woodland Hills, Calif.). […]

[11] = single oral doses of 3, 10 and 30 mg kg^−1
[12] = quadruple point-mutated mice, 30 mg kg^−1

T3 sequence (P20236 29-493): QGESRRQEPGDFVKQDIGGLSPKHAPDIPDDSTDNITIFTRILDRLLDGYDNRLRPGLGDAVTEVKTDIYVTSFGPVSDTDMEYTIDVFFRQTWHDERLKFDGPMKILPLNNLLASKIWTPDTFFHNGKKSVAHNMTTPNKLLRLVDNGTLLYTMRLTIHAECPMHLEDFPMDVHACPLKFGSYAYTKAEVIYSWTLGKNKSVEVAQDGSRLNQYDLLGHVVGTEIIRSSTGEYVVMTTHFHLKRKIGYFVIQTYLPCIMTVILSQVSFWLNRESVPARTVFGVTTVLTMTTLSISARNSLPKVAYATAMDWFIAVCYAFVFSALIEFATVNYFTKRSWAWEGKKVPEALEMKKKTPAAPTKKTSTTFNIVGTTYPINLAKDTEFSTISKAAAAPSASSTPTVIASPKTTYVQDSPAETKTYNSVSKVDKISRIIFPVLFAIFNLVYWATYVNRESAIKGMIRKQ
T3 sequence (P63079 26-473 partner): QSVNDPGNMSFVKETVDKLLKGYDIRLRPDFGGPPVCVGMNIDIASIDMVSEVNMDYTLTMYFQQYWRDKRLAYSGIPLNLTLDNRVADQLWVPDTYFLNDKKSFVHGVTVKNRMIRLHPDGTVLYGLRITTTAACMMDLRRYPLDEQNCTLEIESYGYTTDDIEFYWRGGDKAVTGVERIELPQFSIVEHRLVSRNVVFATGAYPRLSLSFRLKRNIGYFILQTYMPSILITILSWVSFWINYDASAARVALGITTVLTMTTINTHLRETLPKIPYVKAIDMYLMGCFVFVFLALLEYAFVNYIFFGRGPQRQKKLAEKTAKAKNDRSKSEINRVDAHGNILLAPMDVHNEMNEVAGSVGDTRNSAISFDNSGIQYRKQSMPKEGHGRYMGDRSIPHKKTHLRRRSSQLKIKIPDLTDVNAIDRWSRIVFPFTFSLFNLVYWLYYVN
T3 sequence (P18508 39-466): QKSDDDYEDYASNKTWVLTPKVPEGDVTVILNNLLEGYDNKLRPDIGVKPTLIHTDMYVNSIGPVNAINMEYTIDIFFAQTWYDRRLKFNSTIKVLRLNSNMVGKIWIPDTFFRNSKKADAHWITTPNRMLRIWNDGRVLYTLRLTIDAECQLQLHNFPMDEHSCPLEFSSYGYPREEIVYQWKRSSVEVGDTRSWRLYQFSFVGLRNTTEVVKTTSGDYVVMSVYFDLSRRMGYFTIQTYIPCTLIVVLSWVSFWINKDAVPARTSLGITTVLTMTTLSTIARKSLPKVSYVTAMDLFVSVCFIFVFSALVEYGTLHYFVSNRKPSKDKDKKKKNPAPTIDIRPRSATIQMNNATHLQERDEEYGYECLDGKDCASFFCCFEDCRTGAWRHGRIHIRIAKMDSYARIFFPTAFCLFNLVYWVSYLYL
T5 sequence (P23576 29-451): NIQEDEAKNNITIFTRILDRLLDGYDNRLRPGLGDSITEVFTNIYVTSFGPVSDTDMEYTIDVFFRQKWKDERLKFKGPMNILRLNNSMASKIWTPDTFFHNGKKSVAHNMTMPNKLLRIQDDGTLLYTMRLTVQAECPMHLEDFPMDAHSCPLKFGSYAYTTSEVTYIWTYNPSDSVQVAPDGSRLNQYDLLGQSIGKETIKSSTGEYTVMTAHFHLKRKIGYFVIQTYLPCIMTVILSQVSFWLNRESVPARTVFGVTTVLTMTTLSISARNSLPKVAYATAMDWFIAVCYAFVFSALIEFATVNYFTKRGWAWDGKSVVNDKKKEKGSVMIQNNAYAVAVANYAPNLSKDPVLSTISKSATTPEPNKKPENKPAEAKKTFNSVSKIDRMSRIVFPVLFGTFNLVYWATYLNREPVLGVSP
T5 sequence (P63079 26-473 partner): as the sequence (P63079 26-473 partner) above
T5 sequence (P18508 39-466): as the sequence (P18508 39-466) above
T6 sequence (P62813 28-455): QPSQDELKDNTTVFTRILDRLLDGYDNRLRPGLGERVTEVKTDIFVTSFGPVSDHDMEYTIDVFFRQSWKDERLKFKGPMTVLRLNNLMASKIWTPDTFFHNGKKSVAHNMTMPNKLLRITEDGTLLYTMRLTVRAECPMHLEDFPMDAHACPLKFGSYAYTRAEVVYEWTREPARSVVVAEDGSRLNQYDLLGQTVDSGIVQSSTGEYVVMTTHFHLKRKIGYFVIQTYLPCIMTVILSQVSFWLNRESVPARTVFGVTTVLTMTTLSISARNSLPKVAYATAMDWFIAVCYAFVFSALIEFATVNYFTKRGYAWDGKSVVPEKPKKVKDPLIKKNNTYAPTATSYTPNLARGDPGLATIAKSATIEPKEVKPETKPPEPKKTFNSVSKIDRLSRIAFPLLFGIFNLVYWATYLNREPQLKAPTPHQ
T6 sequence (P63138 25-474 partner limits assumed): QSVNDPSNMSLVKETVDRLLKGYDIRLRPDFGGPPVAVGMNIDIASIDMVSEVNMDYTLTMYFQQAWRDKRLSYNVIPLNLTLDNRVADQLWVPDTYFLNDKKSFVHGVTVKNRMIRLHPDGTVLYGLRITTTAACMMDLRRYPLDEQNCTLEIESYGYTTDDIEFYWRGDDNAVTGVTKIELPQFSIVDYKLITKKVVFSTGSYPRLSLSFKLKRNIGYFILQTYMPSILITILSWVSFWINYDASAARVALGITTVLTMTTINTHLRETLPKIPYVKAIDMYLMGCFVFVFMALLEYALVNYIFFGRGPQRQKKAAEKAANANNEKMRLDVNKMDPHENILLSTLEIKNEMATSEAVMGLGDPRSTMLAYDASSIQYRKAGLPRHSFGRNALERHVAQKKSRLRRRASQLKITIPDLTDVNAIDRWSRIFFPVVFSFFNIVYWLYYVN
T6 sequence (P18508 39-466): as the sequence (P18508 39-466) above
Chain of α2GABAAR (P26048 29-451): as the sequence (P23576 29-451) above, with S88L, P174A counted along it
Chain of α2GABAAR (P22723 39-474): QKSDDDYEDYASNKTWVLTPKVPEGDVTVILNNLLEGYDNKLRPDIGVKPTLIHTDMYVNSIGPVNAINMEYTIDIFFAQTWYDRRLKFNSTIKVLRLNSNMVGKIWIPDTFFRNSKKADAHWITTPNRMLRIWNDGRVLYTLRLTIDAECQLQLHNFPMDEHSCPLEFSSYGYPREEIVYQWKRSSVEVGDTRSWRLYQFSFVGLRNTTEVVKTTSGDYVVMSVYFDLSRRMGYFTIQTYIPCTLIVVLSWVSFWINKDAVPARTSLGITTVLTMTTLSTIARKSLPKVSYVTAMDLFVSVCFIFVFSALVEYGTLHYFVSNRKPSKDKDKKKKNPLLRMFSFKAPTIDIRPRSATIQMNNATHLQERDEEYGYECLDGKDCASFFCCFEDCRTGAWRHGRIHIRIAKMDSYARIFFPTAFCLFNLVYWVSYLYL
T4 sequence (P19969 32-464 limits assumed): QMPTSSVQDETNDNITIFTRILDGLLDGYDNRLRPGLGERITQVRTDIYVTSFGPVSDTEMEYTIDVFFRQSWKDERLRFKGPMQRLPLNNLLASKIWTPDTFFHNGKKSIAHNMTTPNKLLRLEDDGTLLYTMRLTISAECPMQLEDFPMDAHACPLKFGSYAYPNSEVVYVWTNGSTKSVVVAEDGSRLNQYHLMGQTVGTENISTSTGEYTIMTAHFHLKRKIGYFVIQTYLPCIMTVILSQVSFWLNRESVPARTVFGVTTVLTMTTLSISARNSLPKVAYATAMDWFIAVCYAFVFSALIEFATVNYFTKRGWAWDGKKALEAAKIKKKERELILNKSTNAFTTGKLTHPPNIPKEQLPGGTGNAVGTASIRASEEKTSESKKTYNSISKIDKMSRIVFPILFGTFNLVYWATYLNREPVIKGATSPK
T4 sequence (P63138 25-474 partner limits assumed): as the sequence (P63138 25-474 partner limits assumed) above
T4 sequence (P18508 39-466): as the sequence (P18508 39-466) above

Row | SMILES | Preference α2- versus α1GABAARs at low concentrations [1] | Efficacy of potentiation of α2- versus α1GABAARs at saturating concentrations [1] | Relative potentiation of subtypes at sub-saturating concentrations [1] | Direct activation of GABAAR currents [2] | Binding affinity for α2 versus α1 receptor complexes [5] | Potentiation of currents (% increase upon application) (α3β3γ2 GABAAR) | Analgesic effect (healthy volunteers) | ED50 antihyperalgesia [6] [mg/kg] | also measured
1 | CN1C(=O)CC(=O)N(c2ccccc2)c2cc(Cl)ccc21 [CBZ, clobazam] | about similar effects on α2- and α1GABAARs | potentiated both GABAAR subtypes with similar efficacy | α1GABAAR mediated currents were potentiated similarly to α2-, α3- and α5-GABAARs mediated currents | did not directly activate GABAAR currents | higher binding affinity for α2 versus α1 receptor complexes | about 300% | weak analgesic effects |  | Potentiation of the other three α1-, α2-, and α5-GABAARs subtypes [3]: about 150%; Half-life in human [4]: 23 to 24 h
2 | CN1C(=O)CN=C(c2ccccc2)c2cc(Cl)ccc21 [DZP, diazepam] | favored α1GABAARs | potentiated both GABAAR subtypes with similar efficacy | α1GABAAR mediated currents were potentiated more strongly than α2-, α3- and α5-GABAARs mediated currents | did not directly activate GABAAR currents |  | 237% |  | 3.4 ± 1.3 | ED50 sedation [7]: 0.59 ± 0.08 mg/kg; α2GABAAR occupancy at which significant analgesia (>50% maximum possible effect) is achieved (α2GABAAR): about 70%
3 | O=C1CC(=O)N(c2ccccc2)c2cc(Cl)ccc2N1 [NDMC, 8-Chloro-1-phenyl-1H-1,5-benzodiazepine-2,4(3H,5H)-dione] | preferred α2GABAARs across the entire concentration range tested | clearly favored α2-over α1GABAARs | highest for α2- followed by α3-, and lowest for α5- and α1-GABAARs mediated currents | did not directly activate GABAAR currents | a difference which is shared | 245% |  | 3.1 ± 0.9 | Effect on locomotor activity (sedation) (mice, motor activity; 129X1/SvJ mice, all tested doses): did not cause any measurable reduction in locomotor activity; Effect on motor activity (sedation) (mice, motor activity; C57BL/6J mice, 3, 10, 30 mg/kg, recorded for 6 h): did not impair motor activity at any dose; α2/α1GABAAR selectivity ratio ([1]; compared among DZP, CBZ and NDMC): most favorable α2/α1GABAAR selectivity ratio; half-life ([8]; C57BL/6, mouse, plasma, range over single oral doses of 3, 10 and 30 mg kg^−1): 4.6 to 5.6 h; Average maximum plasma concentration ([8]; single oral dose 3 mg kg^−1): 1.2 µg/mL; Average maximum plasma concentration ([8]; single oral dose 10 mg kg^−1): 1.9 µg/mL; Average maximum plasma concentration ([8]; single oral dose 30 mg kg^−1): 3.3 µg/mL; Time to average maximum plasma concentrations [8, 11]: about 2.5 hrs; Time to maximal blood levels [8, 11]: 2 to 3 h; Reversal of thermal hypersensitivity (paw withdrawal latency) ([9]; C57BL/6J mice, injured paw, NDMC 3, 10, 30 mg/kg): dose-dependently reversed this hypersensitivity; Antihyperalgesic effect, heat hyperalgesia [9, 12]: completely lost its antihyperalgesic effects; Potentiation of currents (% increase upon application) (α5β2γ2 GABAAR): 148%; Efficacy at α2β3γ2GABAARs compared with DZP (α2β3γ2 GABAAR): even stronger efficacy at α2β3γ2GABAARs than the full agonist DZP; Potentiation of currents (% increase upon application) (α2β3γ2 GABAAR; α2GABAARs, GABA at EC10): 253%; Potentiation of currents (% increase upon application) (α1β2γ2 GABAAR): 143%; Reversal of mechanical hypersensitivity (paw withdrawal threshold) ([10]; C57BL/6J mice, injured paw, NDMC 3, 10, 30 mg/kg, compared to vehicle): dose-dependently reversed this hypersensitivity; Antihyperalgesic effect, mechanical hyperalgesia [10, 12]: completely lost its antihyperalgesic effects
4 | O=C1CN=C(c2ccccc2Cl)c2cc([N+](=O)[O-])ccc2N1 [clonazepam] |  |  |  |  | no distinction of affinity between α2 and α1 receptor complexes |  | weak analgesic effects |  | 
